Data set [1] relates to TNFα release. The data set is described as follows: TNFα release in whole human blood (LPS, ELISA). In kind it is cell-based. As to the method:
The blood samples obtained from healthy volunteers were collected in heparinised tubes and diluted 1:5 with RPMI 1640 without serum addition.
The test was carried out in 96-well plates and samples containing 150 μl of diluted blood and 150 μl of RPMI 1640 with control vehicle or with different concentration of the compounds of the present invention were incubated at 37° C. in a 5% CO2 humidified atmosphere for 30 minutes.
The whole blood in the assay samples was diluted 1:10 (v/v).
The samples were stimulated with LPS (lipopolysaccharide from E. Coli: serotype B 0:55, Sigma) 0.25 μg/ml and incubated for 24 hours.
After centrifugation, the supernatants were collected for TNFα levels determination by a commercially available ELISA kit (Biosource).
The test objects were dissolved in DMSO at 10^−2 M and further diluted in RPMI 1640. […] Each compound was tested in duplicate at nine concentrations and the data obtained were further confirmed using blood samples from different donors.
The percent inhibition of TNFα production at each concentration was calculated and IC50 was determined using a 4-parameters logistic equation (Origin calculation program, Microcal Software Inc.)

Data set [2] concerns the target PDE 3 (Homo sapiens, UniProt Q14432). The data set is described as follows: PDE 3 enzyme inhibition (SPA). In kind it is biochemical, healthy volunteers. As to conditions: PDE 3 from platelet rich plasma; 3H-cAMP; read-out: PDE 3-5 IC 50 (nM): PDE 3. As for the experimental part: (§1) PDE 3 and PDE 5 enzymes were purified from platelet rich plasma (PRP) obtained from healthy volunteers.
(§2) PDE 3 and PDE 5 enzymes were purified according to Simpson A. W. M. et al. (Biochem. Pharmacol. 1988, 37, 2315-2320) partially modified for the FPLC technique (Fast Protein Liquid Chromatography).
(§3) The PRP was diluted 1:2 in saline solution and centrifuged at 2000×g for 15 minutes at room temperature.
(§4) The pellet was suspended in 10 ml of lysis solution (155 mM NH4Cl, 10 mM KHCO3 and 0.1 mM Na2EDTA pH 7.4) and incubated for 10 minutes on ice-bath to remove erythrocyte contamination.
(§5) After centrifugation, platelets were suspended in 10 ml of 20 mM Bis-Tris, 2 mM EDTA, 5 mM β-mercaptoethanol, 50 mM sodium acetate, 2 mM benzamidine) and homogenised with a Polytron homogeniser on ice-bath.
(§6) The homogenate was centrifuged and the supernatant applied to a UNO Q12 column connected to a Biologic Chromatography system (FPLC, BIO RAD).
(§7) PDE 3 and PDE 5 enzymes were eluted with a linear 0.05-1M sodium acetate gradient and the elution fractions were collected for PDE enzymes activity assay.
(§8) Fractions containing PDE activities were pooled, dialysed overnight against distilled water and concentrated 10 times by an Amicon filtration system (using YM10 membrane filter). Ethylene glycol was added to a final concentration of 30% v/v and the solution stored at −20° C.
(§9) Enzymatic activity was stable for several weeks under these conditions.
(§10) Enzymes activity assay were performed using Scintillation Proximity Assay (SPA) Amersham kit consisting of tracer ^3H-cAMP for PDE3 or ^3H-cGMP for PDE5, PDE assay buffer (10×solution: 500 mM TRIS/HCl pH 7.5, 83 mM MgCl2 and 17 mM EGTA) and Yttrium SPA PDE beads (containing 18 mM zinc sulphate).
(§11) The radioactivity of the beads was measured using a scintillation counter (Packard model MINAXI β TRI-CARB 4000 SERIES).

The target of data set [3] is PDE 5 (Homo sapiens, UniProt O76074). The data set can be described thus: PDE 5 enzyme inhibition (SPA). In kind it is biochemical, healthy volunteers. As to conditions: PDE 5 from platelet rich plasma; 3H-cGMP; read-out: PDE 3-5 IC 50 (nM): PDE 5. As to the method:
as §1, §2, §3, §4, §5, §6, §7, §8, §9, §10, §11

For data set [4], the target named is T1, PDE 1 (Bos taurus, UniProt P14100).
T1 construct: partially purified from bovine heart; purchased Sigma P0520; host or cells: bovine heart
T1 sequence (P14100 1-514 isoform P14100-2): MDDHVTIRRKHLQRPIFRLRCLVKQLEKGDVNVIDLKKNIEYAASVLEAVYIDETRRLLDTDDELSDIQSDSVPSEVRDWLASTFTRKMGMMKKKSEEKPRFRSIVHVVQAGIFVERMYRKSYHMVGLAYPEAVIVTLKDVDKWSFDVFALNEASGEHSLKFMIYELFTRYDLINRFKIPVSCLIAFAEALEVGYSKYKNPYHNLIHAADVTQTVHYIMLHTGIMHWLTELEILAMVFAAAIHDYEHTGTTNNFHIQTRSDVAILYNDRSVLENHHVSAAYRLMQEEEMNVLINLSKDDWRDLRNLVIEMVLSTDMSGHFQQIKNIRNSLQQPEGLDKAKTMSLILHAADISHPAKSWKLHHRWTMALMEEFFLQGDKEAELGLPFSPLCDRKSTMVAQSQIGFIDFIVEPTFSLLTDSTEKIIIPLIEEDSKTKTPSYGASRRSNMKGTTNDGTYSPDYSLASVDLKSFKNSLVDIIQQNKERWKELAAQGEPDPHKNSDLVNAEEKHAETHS
The data set is described as follows: PDE 1 enzyme inhibition (SPA). In kind it is biochemical. As to conditions: PDE 1 from bovine heart (Sigma P0520); read-out: PDE 1 IC 50. As to the method: Lyophilised PDE 1 enzyme, partially purified from bovine heart, was purchased from Sigma (P0520).
The enzyme consists of the PI fraction reported by Ho et al. (Biochim Biophys Acta, 1976, vol. 429(2), 461-473).
The lyophilised enzyme was reconstituted with 30% v/v ethylene glycol at a concentration of 500 µg/ml and stored at −20° C.
PDE 1 activity was determined using the Scintillation Proximity Assay (SPA) Amersham kit consisting of tracer ^3H-cAMP, PDE assay buffer (10×solution: 500 mM TRIS/HCl pH 7.5, 83 mM MgCl2 and 17 mM EGTA) and Yttrium SPA PDE beads (containing 18 mM zinc sulphate).
as §11

A short description of data set [5]: Solubility test by HPLC in PBS pH 7.4. In kind it is physicochemical. As to conditions: PBS pH 7.4, HPLC against standard, compounds of formula I; for solubility kinetic: PBS (phosphate buffer saline), aqueous buffer, kinetic from dmso stock. As for the experimental part:
HPLC method used to test the solubility.
Solubility test was performed by HPLC analysis (column 4.6×15 mm) water/0.1% TFA —CH3CN/0.06% TFA gradient) against standard.
A […] solution of the substance dissolved in DMSO was prepared.
In order to prepare the sample 190 μl of PBS (Phosphate Buffer Saline, pH 7.4) were added to 10 μl of the above solution; instead (while) in order to prepare the standard 190 μl of DMSO to other 10 μl of solution were added.

Data set [6] in a line: Pharmacokinetic study in rats. As to conditions: for PK rat t/2: 10 mg/kg oral or 3 mg/kg intravenously, mixture of 3-5 compounds; for bioavailability: plasma, rat, oral 10 mg/kg in N-methylglucosamine/PG/Tween 80 (physiologic vehicle), read-out: PK rat % F. In kind it is in vivo. As for the experimental part: A mixture containing 3-5 compounds according to what described by Ward K. W. et al. (Drug Metab. Dispos. 2001, vol. 29, 82-88) was administered to rats at 10 mg/kg dosage by oral route (1 mg/ml in 77% N-methylglucosamine 25 mM and 20% PG containing 3% Tween 80) or 3 mg/kg intravenously (3 mg/ml in 15% DMSO/85% PEG).
The animals received only one treatment per study.
The rats permanently implanted with jugular catheter (Silastic®, Dow Corning) were treated with the test mixture by an intravenous bolus (via implanted catheter) or by oral gavage. Blood samples were collected from the jugular catheter at different times up to 6 h after administration.
Plasma samples were analyzed after protein precipitation by two volumes of CH3CN and plasma concentrations were determined by liquid chromatography/mass spectrometry.
Being poor the solubility of the compounds comprised in the general formula of the international patent application WO 00/05218, it was necessary to performe the pharmacokinetic studies using a 15% DMSO/85% PEG solution of the compounds both for intravenous and for oral route, i.e. by an absolutely non physiological vehicle.

The mark [7] stands for this setting: h-WB (whole human blood), LPS stimulated, read-out: IC 50 (nM) h-WB.
Where [8] appears, read: whole human blood diluted 1:10, LPS 0.25 μg/ml, 24 hours, read-out: IC 50 (nM) h-WB 1:10.

The text below walks through data of patent publication US20060166996A1, “Phthalazine derivatives as phosphodiesterase 4 inhibitors” (Zambon Group S.P.A., priority 2002, published 2006).

Usually solubility (kinetic) stands for solubility judged after dilution from a stock solution rather than from solid.

Each structure is given as a SMILES string. Values after ≈ are worked out from the molar mass of the structure shown. Where two headings read alike, the source gives them in different places.

PDE 3, sequence (Q14432 674-1093 limits assumed): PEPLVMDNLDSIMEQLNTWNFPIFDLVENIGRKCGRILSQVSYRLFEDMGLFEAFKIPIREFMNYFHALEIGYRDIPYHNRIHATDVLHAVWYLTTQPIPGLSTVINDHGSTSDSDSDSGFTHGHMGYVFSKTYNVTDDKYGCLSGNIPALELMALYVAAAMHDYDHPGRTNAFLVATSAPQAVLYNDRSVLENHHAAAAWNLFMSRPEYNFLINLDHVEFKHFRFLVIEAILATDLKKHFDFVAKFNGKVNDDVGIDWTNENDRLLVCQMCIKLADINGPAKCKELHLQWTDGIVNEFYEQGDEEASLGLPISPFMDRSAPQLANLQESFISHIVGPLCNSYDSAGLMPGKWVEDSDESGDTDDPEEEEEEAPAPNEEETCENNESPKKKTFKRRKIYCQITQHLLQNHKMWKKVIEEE

In the case of `O=C(O)c1cccc(-c2nnc(Cc3c(Cl)cncc3Cl)c3ccc(OC(F)F)cc23)c1` [Compound 8, 3-[4-(3,5-dichloro-pyridin-4-ylmethyl)-7-difluoromethoxy-phthalazin-1-yl]-benzoic Acid], the IC50 in data set [1] (setting [7]) was 14300 nM; in data set [1] (setting [8]), 1230 nM; in data set [2], more than 10000 nM; in data set [3] it was more than 10000 nM; in data set [4], more than 10 µM. Further, the solubility (kinetic) in data set [5] turned out to be 0.47 mg/mL (≈ 987 µM). The “Sol.” value in data set [5] came out at 987.39 µM. In data set [6], the “PK rat t/2” value was 66 min. In data set [6], the bioavailability turned out to be 41%.
For the molecule `COc1ccc2c(Cc3c(Cl)cncc3Cl)nnc(-c3cccc(C(=O)O)c3)c2c1` [Compound 2, 3-[4-(3,5-dichloro-pyridin-4-ylmethyl)-7-methoxy-phthalazin-1-yl]-benzoic Acid], the IC50 is 33000 nM in data set [1] (setting [7]); 2470 nM in data set [1] (setting [8]); more than 10000 nM in data set [2]; more than 10000 nM in data set [3]; more than 10 µM in data set [4]. Further, the kinetic solubility in data set [5] was determined as 0.216 mg/mL (≈ 491 µM). For the same molecule, the “Sol.” value in data set [5] stood at 482.14 µM. Also, the “PK rat t/2” value in data set [6] was 132 min. Further, in data set [6], the bioavailability was 43%.
On to `COc1ccc2c(Cc3c(Cl)cncc3Cl)nnc(-c3sccc3C(=O)O)c2c1` [Compound 10, 2-[4-(3,5-dichloro-pyridin-4-ylmethyl)-7-methoxy-phthalazin-1-yl]-thiophene-3-carboxylic Acid], for which the IC50 is 18000 nM in data set [1] (setting [8]), more than 10000 nM in data set [2], more than 10000 nM in data set [3] and more than 10 µM in data set [4]. Also, the solubility (kinetic) in data set [5] worked out at 0.253 mg/mL (≈ 567 µM). For the same molecule, the “Sol.” value in data set [5] is 567.26 µM. The “PK rat t/2” value in data set [6] is 21 min. Besides, in data set [6], the bioavailability was found to be 7%.
